In brackets after ≈: the same amount, converted by molar mass. Where a SMILES comes first, the peptide text is derived from it. Bridges are numbered along the chain shown (N, C = ends).
Columns and labels:
[1] = tested on: E. coli O157; assay: MIC, micro broth dilution; assay type: cell-based; conditions: 1 × 10^5 CFU/mL, repeated thrice
Method: The minimum inhibitory concentration (MIC) of the peptides was assayed using the micro broth dilution method, which is an important indicator of the antibacterial activity of the AMPs ([Liu et al., 2021]). […] The MIC was defined as the lowest concentration of ones at which no visible bacterial growth was observed. All the assays were repeated thrice.

[2] = tested on: S. aureus ATCC43300; assay: Thermal stability read out as MIC; assay type: physicochemical, Staphylococcus aureus; conditions: 1 h; for MIC after heat treatment: triplicates
Method: The stability of Ple-AB was assessed based on its antibacterial activity against S. aureus ATCC43300. Temperature stability was determined by incubation at 20, 40, 60, 80, and 100°C for 1 h ([Li et al., 2020]). The pH stability was determined by incubation in buffers with a pH of 2, 4, 6, 8, and 10 for 4 h ([Yang et al., 2017]). The peptides were incubated with different concentrations of metal ions, serum, artificial gastric fluid, and simulated intestinal fluid to assess their stability in the blood and intestines ([Lyu et al., 2019]). All the treatments were performed in triplicates.

CC[C@H](C)[C@@H]1NC(=O)[C@H](CO)NC(=O)[C@H](CCCCN)NC(=O)[C@@H]2CSSC[C@@H](C(=O)N[C@@H](Cc3ccc(O)cc3)C(=O)O)NC(=O)[C@H](CCCCN)NC(=O)[C@@H]3CSSC[C@H](NC(=O)[C@H](CCC(N)=O)NC(=O)[C@H](CCSC)NC(=O)[C@H](CCC(=O)O)NC(=O)[C@H](CC(=O)O)NC(=O)[C@H](Cc4c[nH]c5ccccc45)NC(=O)[C@@H]4CCCN4C(=O)[C@@H](NC(=O)CNC(=O)[C@H](Cc4ccccc4)NC(=O)CN)CSSC[C@H](NC(=O)[C@H](Cc4ccc(O)cc4)NC(=O)CNC(=O)CNC(=O)[C@H](CCCCN)NC(=O)[C@H](Cc4ccc(O)cc4)NC(=O)CNC(=O)[C@H](CCCCN)NC1=O)C(=O)N[C@@H](C)C(=O)N[C@@H](CCCCN)C(=O)NCC(=O)NCC(=O)N[C@@H](Cc1ccccc1)C(=O)N[C@@H](C(C)C)C(=O)N3)C(=O)N[C@@H](Cc1c[nH]cn1)C(=O)N[C@@H](CC(N)=O)C(=O)N[C@@H](Cc1c[nH]cn1)C(=O)N2 [Ple-AB] (H-GFGCPWDEMQCHNHCKSIKGYKGGYCAKGGFVCKCY-OH; disulfide 4-26, 11-33, 15-35; N-terminus and C-terminus assumed)
MIC [1]: >128 µg/mL
MIC after heat treatment ([2]; 20°C): 16 µg/mL (≈ 4 µM)
MIC after heat treatment ([2]; 40°C): 16 µg/mL (≈ 4 µM)
MIC after heat treatment ([2]; 60°C): 16 µg/mL (≈ 4 µM)
MIC after heat treatment ([2]; 80°C): 16 µg/mL (≈ 4 µM)
MIC after heat treatment ([2]; 100°C): 32 µg/mL (≈ 8 µM)
Increase of MIC after heat treatment ([2]; 100°C, versus control): twofold

Source: article PMC10771296, “Plectasin: from evolution to truncation, expression, and better druggability” (Frontiers in Microbiology, 2023)
